{"source": "ChEMBL document CHEMBL4715821", "about": "“Discovery of 4-ethoxy-7H-pyrrolo[2,3-d]pyrimidin-2-amines as potent, selective and orally bioavailable LRRK2 inhibitors” (Bioorg Med Chem Lett, 2018)", "key": {"[1]": {"target": "Serine/threonine-protein kinase 38 (Homo sapiens) (UniProt Q15208)", "test": "Inhibition of wild-type human partial length NDR1 (N33 to E449 residues) expressed in mammalian expression system assessed as residual activity at 1 uM by Kinomescan method relative to control"}, "[2]": {"target": "Tyrosine-protein kinase HCK (Homo sapiens) (UniProt P08631)", "sequence (P08631 2-526 limits assumed)": "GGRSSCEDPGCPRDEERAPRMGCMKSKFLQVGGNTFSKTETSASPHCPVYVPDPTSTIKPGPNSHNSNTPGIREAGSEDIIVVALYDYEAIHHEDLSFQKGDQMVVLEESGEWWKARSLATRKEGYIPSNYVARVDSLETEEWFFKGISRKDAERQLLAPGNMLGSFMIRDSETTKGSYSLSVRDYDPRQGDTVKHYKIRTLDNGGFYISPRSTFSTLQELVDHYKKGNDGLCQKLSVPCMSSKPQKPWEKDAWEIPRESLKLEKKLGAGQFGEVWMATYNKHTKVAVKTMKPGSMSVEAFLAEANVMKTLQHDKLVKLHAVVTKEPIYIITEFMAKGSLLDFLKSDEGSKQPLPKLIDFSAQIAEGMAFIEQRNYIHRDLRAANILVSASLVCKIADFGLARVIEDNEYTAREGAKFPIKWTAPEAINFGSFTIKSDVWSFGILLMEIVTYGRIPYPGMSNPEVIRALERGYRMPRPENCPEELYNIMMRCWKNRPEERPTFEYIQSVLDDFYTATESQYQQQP", "test": "Inhibition of wild-type human full length HCK (M22 to P526 residues) expressed in bacterial expression system assessed as residual activity at 1 uM by Kinomescan method relative to control"}, "[3]": {"target": "Serine/threonine-protein kinase TAO1 (Homo sapiens) (UniProt Q7L7X3)", "test": "Inhibition of wild-type human partial length TAOK1 (M1 to A320 residues) expressed in mammalian expression system assessed as residual activity at 1 uM by Kinomescan method relative to control"}, "[4]": {"target": "Death-associated protein kinase 2 (Homo sapiens) (UniProt Q9UIK4)", "sequence (Q9UIK4 whole entry, looked up, the tested form may be a part)": "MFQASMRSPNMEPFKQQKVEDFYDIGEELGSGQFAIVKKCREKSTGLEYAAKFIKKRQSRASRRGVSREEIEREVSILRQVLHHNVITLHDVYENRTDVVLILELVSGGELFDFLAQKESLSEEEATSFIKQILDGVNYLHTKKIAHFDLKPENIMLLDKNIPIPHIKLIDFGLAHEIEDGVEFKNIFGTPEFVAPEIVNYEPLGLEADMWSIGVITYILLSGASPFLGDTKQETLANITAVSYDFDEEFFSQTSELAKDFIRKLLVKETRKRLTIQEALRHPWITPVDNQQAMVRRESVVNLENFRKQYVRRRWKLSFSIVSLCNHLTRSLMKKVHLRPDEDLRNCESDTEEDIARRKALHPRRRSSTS", "test": "Inhibition of wild type human full length DAPK2 (M1 to S370 residues) expressed in bacterial expression system assessed as residual activity at 1 uM by Kinomescan method relative to control"}, "[5]": {"target": "Calcium/calmodulin-dependent protein kinase type IV (Homo sapiens) (UniProt Q16566)", "sequence (Q16566 whole entry, the tested form may be a part)": "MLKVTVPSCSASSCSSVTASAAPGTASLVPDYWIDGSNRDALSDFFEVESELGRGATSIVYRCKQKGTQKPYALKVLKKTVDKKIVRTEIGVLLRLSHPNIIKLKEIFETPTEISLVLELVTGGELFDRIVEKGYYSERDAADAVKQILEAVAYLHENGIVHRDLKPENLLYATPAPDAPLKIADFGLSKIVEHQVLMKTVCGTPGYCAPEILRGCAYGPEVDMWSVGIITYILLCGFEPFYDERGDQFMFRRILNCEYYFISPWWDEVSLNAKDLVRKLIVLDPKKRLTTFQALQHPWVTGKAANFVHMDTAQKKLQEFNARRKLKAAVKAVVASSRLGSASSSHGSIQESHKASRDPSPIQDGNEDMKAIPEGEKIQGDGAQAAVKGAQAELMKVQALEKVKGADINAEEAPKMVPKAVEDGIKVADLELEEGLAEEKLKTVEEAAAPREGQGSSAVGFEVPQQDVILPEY", "test": "Inhibition of wild-type human partial length CAMK4 (A22 to A322 residues) expressed in bacterial expression system assessed as residual activity at 1 uM by Kinomescan method relative to control"}, "[6]": {"target": "Tyrosine-protein kinase FRK (Homo sapiens) (UniProt P42685)", "test": "Inhibition of wild-type human partial length FRK (A215 to F503 residues) expressed in bacterial expression system assessed as residual activity at 1 uM by Kinomescan method relative to control"}, "[7]": {"target": "BDNF/NT-3 growth factors receptor (Homo sapiens) (UniProt Q16620)", "test": "Inhibition of wild-type human partial length TRKB (Q547 to G838 residues) expressed in mammalian expression system assessed as residual activity at 1 uM by Kinomescan method relative to control"}, "[8]": {"test": "In vivo inhibition of LRRK2 in Han-Wistar rat assessed as reduction in Ser935 phosphorylation in lung at 10 to 100 mg/kg, po by Western blot analysis", "type": "functional", "set-up": "scale not given: the % may be the effect or the level left", "settings": "dose 10-100 mg/kg"}, "[9]": {"target": "Receptor tyrosine-protein kinase erbB-2 (Homo sapiens) (UniProt P04626)", "sequence (P04626 whole entry, the tested form may be a part)": "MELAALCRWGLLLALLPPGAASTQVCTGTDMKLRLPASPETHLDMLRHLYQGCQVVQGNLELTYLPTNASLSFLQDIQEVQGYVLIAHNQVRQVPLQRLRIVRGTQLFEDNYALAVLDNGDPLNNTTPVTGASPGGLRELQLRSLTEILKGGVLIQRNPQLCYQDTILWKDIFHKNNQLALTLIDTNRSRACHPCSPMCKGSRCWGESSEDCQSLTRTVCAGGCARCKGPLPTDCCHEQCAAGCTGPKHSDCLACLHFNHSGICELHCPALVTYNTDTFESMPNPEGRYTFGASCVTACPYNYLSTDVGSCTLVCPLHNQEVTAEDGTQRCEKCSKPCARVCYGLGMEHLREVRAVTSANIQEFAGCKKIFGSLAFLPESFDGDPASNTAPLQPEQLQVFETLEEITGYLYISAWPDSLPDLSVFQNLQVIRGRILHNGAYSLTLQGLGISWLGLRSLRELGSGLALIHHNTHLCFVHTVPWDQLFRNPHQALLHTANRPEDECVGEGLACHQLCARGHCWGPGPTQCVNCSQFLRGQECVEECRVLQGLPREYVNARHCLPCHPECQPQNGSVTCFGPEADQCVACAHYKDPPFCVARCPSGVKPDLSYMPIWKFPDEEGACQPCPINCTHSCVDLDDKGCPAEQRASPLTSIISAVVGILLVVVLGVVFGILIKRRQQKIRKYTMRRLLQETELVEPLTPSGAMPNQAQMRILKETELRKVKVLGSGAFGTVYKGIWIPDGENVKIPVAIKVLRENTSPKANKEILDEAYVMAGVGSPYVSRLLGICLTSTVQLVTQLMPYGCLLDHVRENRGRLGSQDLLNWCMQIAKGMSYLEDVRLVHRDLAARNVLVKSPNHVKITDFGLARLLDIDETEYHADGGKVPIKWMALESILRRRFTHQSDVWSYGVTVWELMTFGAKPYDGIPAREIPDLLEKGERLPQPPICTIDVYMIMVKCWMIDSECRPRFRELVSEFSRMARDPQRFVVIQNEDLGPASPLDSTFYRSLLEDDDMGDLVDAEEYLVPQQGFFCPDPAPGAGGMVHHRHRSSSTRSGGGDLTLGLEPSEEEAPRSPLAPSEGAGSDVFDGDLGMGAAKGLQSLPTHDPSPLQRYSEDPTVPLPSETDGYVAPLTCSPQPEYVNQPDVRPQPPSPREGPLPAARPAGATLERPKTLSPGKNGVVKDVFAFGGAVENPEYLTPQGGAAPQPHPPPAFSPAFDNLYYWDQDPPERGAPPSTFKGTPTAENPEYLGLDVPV", "test": "Inhibition of wild-type human partial length ERBB2 (K646 to V1225 residues) expressed in mammalian expression system assessed as residual activity at 1 uM by Kinomescan method relative to control"}, "[10]": {"target": "RAC-beta serine/threonine-protein kinase (Homo sapiens) (UniProt P31751)", "test": "Inhibition of wild-type human partial length AKT2 expressed in bacterial expression system assessed as residual activity at 1 uM by Kinomescan method relative to control"}, "[11]": {"target": "Serine/threonine-protein kinase PAK 3 (Homo sapiens) (UniProt O75914)", "test": "Inhibition of wild-type human full length PAK3 (M1 to R544 residues) expressed in bacterial expression system assessed as residual activity at 1 uM by Kinomescan method relative to control"}, "[12]": {"target": "Mitogen-activated protein kinase kinase kinase 3 (Homo sapiens) (UniProt Q99759)", "test": "Inhibition of MEKK3 (unknown origin) assessed as residual activity at 1 uM by Kinomescan method relative to control"}, "[13]": {"target": "Discoidin domain-containing receptor 2 (Homo sapiens) (UniProt Q16832)", "test": "Inhibition of wild-type human partial length DDR2 (V555 to E855 residues) expressed in mammalian expression system assessed as residual activity at 1 uM by Kinomescan method relative to control"}, "[14]": {"target": "Vascular endothelial growth factor receptor 3 (Homo sapiens) (UniProt P35916)", "test": "Inhibition of wild-type human partial length FLT4 (E821 to E1196 residues) expressed in bacterial expression system assessed as residual activity at 1 uM by Kinomescan method relative to control"}, "[15]": {"target": "Protein kinase C beta type (Homo sapiens) (UniProt P05771)", "test": "Inhibition of PKCbeta2 (unknown origin) assessed as residual activity at 1 uM by Kinomescan method relative to control"}, "[16]": {"target": "Serine/threonine-protein kinase VRK1 (Homo sapiens) (UniProt Q99986)", "test": "Inhibition of VRK1 (unknown origin) assessed as residual activity at 1 uM by Kinomescan method relative to control"}, "[17]": {"target": "Serine/threonine-protein kinase ICK (Homo sapiens) (UniProt Q9UPZ9)", "test": "Inhibition of wild-type human partial length ICK (M1 to P314 residues) expressed in mammalian expression system assessed as residual activity at 1 uM by Kinomescan method relative to control"}, "[18]": {"target": "Mitogen-activated protein kinase kinase kinase kinase 2 (Homo sapiens) (UniProt Q12851)", "test": "Inhibition of wild-type human partial length MAP4K2 (M1 to G318 residues) expressed in mammalian expression system assessed as residual activity at 1 uM by Kinomescan method relative to control"}, "[19]": {"target": "Serine/threonine-protein kinase PLK3 (Homo sapiens) (UniProt Q9H4B4)", "sequence (Q9H4B4 whole entry, looked up, the tested form may be a part)": "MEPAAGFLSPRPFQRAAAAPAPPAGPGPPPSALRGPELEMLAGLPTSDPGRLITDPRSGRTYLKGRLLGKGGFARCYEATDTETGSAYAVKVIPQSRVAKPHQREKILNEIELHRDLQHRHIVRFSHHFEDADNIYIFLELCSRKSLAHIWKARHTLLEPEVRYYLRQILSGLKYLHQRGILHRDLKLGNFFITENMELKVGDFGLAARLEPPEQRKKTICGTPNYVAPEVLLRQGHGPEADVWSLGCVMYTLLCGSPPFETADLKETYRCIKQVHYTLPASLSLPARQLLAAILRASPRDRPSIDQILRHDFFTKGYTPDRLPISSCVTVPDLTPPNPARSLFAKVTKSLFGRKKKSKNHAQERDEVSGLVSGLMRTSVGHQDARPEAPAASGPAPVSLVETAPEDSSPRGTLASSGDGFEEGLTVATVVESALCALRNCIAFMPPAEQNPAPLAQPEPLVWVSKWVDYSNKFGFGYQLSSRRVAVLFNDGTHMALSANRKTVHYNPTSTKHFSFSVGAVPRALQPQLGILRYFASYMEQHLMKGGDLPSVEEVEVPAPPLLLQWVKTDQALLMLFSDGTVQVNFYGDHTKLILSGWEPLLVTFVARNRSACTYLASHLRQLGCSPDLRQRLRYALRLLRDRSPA", "test": "Inhibition of wild-type human partial length PLK3 (A42 to L334 residues) expressed in mammalian expression system assessed as residual activity at 1 uM by Kinomescan method relative to control"}, "[20]": {"test": "Dose normalized AUC (0 to t) in Han-Wistar rat brain at 10 mg/kg, po measured up to 7 hrs by UPLC-MS/MS analysis", "type": "ADME, organism-based", "settings": "in vivo"}, "[21]": {"target": "Testis-specific serine/threonine-protein kinase 3 (Homo sapiens) (UniProt Q96PN8)", "sequence (Q96PN8 whole entry, the tested form may be a part)": "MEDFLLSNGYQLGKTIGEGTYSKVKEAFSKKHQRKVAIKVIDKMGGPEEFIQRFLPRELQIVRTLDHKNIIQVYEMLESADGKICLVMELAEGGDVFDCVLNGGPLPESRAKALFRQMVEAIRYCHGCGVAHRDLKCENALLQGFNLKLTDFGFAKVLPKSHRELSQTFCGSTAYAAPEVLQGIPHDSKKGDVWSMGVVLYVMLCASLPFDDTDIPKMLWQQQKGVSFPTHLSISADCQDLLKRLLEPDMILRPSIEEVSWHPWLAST", "test": "Inhibition of wild-type human full length TSSK3 (M1 to T268 residues) expressed in mammalian expression system assessed as residual activity at 1 uM by Kinomescan method relative to control"}, "[22]": {"target": "CDK9/Cyclin K (Homo sapiens) (UniProt P50750+O75909)", "test": "Inhibition of wild-type human full length CDK9 (M1 to F372 residues)/cyclin K expressed in bacterial expression system assessed as residual activity at 1 uM by Kinomescan method relative to control"}, "[23]": {"target": "Mitogen-activated protein kinase kinase kinase 9 (Homo sapiens) (UniProt P80192)", "test": "Inhibition of wild-type human partial length MLK1 (V88 to W426 residues) expressed in bacterial expression system assessed as residual activity at 1 uM by Kinomescan method relative to control"}, "[24]": {"target": "Cyclin-dependent kinase 7/ cyclin H (Homo sapiens) (UniProt P51946+P50613)", "test": "Inhibition of wild-type human full length CDK7 (M1 to L344 residues)/cyclin H expressed in mammalian expression system assessed as residual activity at 1 uM by Kinomescan method relative to control"}, "[25]": {"target": "Tyrosine-protein kinase Fes/Fps (Homo sapiens) (UniProt P07332)", "test": "Inhibition of wild-type human partial length FES (I527 to R822 residues) expressed in bacterial expression system assessed as residual activity at 1 uM by Kinomescan method relative to control"}, "[26]": {"target": "Mitogen-activated protein kinase kinase kinase 1 (Homo sapiens) (UniProt Q13233)", "sequence (Q13233 whole entry)": "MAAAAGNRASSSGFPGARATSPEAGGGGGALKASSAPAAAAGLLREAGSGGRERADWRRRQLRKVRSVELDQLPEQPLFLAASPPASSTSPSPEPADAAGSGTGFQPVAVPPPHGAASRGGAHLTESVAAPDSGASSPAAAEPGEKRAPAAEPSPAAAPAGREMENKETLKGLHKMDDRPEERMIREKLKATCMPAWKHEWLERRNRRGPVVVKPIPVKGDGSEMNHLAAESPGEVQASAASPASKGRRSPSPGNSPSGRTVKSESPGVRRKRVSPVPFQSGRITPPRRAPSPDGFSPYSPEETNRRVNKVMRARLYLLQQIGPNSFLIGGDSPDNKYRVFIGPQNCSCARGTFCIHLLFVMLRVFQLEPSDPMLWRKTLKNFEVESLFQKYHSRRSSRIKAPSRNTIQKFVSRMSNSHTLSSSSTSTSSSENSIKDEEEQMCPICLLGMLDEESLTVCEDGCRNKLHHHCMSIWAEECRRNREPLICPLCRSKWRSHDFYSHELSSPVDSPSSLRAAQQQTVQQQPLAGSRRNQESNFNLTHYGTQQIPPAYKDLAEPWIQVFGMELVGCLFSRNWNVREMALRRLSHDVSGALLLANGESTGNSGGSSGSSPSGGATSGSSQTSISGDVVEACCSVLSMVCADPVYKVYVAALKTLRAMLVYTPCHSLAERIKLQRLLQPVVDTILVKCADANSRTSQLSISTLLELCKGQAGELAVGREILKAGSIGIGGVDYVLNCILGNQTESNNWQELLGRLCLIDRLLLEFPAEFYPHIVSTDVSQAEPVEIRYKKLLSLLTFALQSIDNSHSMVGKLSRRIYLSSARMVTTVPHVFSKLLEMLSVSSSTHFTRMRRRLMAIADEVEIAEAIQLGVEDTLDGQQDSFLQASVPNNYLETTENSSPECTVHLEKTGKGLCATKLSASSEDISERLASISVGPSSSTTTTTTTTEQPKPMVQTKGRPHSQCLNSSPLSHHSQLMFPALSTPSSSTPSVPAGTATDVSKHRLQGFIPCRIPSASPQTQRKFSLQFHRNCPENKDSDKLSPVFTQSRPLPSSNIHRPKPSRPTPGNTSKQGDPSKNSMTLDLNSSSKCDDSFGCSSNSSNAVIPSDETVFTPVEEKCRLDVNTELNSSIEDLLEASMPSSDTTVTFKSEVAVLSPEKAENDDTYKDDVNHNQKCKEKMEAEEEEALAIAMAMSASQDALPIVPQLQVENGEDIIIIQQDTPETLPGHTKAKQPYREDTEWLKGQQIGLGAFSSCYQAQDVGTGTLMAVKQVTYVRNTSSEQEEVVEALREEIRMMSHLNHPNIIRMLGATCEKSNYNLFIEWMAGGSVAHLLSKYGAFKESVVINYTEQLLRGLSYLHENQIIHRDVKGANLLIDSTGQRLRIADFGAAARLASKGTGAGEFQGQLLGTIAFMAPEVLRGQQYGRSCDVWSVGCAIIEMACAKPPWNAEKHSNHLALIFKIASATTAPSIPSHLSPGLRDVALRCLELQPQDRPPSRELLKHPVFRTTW", "test": "Inhibition of MEKK1 (unknown origin) assessed as residual activity at 1 uM by Kinomescan method relative to control"}}, "data": [{"smiles": "CCOc1nc(Nc2ccc(C(=O)N3CCOCC3)cc2OC)nc2[nH]ccc12", "values": [{"measurement": "Activity", "setting": "[1]", "result": 97.8, "unit": "%"}, {"measurement": "Activity", "setting": "[2]", "result": 87.2, "unit": "%"}, {"measurement": "Activity", "setting": "[3]", "result": 89.9, "unit": "%"}, {"measurement": "Activity", "setting": "[4]", "result": 137, "unit": "%"}, {"measurement": "Activity", "setting": "[5]", "result": 90.6, "unit": "%"}, {"measurement": "Activity", "setting": "[6]", "result": 90.6, "unit": "%"}, {"measurement": "Activity", "setting": "[7]", "result": 102, "unit": "%"}, {"measurement": "Activity", "setting": "[8]", "result": 100, "unit": "%"}, {"measurement": "Activity", "setting": "[9]", "result": 110, "unit": "%"}, {"measurement": "Activity", "setting": "[10]", "result": 97.1, "unit": "%"}, {"measurement": "Activity", "setting": "[11]", "result": 96.4, "unit": "%"}, {"measurement": "Activity", "setting": "[12]", "result": 97, "unit": "%"}, {"measurement": "Activity", "setting": "[13]", "result": 95.7, "unit": "%"}, {"measurement": "Activity", "setting": "[14]", "result": 106, "unit": "%"}, {"measurement": "Activity", "setting": "[15]", "result": 89.1, "unit": "%"}, {"measurement": "Activity", "setting": "[16]", "result": 86.7, "unit": "%"}, {"measurement": "Activity", "setting": "[17]", "result": 104, "unit": "%"}, {"measurement": "Activity", "setting": "[18]", "result": 90.2, "unit": "%"}, {"measurement": "Activity", "setting": "[19]", "result": 88.1, "unit": "%"}, {"measurement": "AUCt/dose", "setting": "[20]", "result": 252, "unit": "ng·h/g/mg/kg"}, {"measurement": "Activity", "setting": "[21]", "result": 116, "unit": "%"}, {"measurement": "Activity", "setting": "[22]", "result": 103, "unit": "%"}, {"measurement": "Activity", "setting": "[23]", "result": 83.9, "unit": "%"}, {"measurement": "Activity", "setting": "[24]", "result": 93.8, "unit": "%"}, {"measurement": "Activity", "setting": "[25]", "result": 43.2, "unit": "%"}, {"measurement": "Activity", "setting": "[26]", "result": 99, "unit": "%"}]}]}
